For one molecule, Activity results are on record in ChEMBL document CHEMBL3739313, “4-Methylcoumarins with cytotoxic activity against T24 and RT4 human bladder cancer cell lines” (2015).

Test [1] can be described thus: Cytotoxicity against human T24 cells assessed as reduction of cell viability at 10 uM after 48 hrs by MTT assay. It is filed as functional, T-24. On the technique in general: Formazan colour is commonly taken as a measure of viable cells.
Test [2] can be described thus: Cytotoxicity against human T24 cells assessed as reduction of cell viability at 25 uM after 48 hrs by MTT assay. It is filed as functional, T-24.
A short description of test [3]: Cytotoxicity against human T24 cells assessed as reduction of cell viability at 50 uM after 48 hrs by MTT assay. Type of test: functional, T-24.
Test [4] is described as follows: Cytotoxicity against human T24 cells assessed as reduction of cell viability at 100 uM after 48 hrs by MTT assay. Type of test: functional, T-24.
Test [5] is described as follows: Cytotoxicity against human T24 cells assessed as reduction of cell viability at 50 uM after 24 hrs by MTT assay. It is filed as functional, T-24.
Test [6] is described as follows: Cytotoxicity against human T24 cells assessed as reduction of cell count at 50 uM after 24 hrs. Type of test: functional, T-24. Further details: scale not given: the % may be the effect or the level left.
Test [7] relates to RT-4. Description: Cytotoxicity against human RT4 cells assessed as reduction of cell viability at 5 to 100 uM after 24 hrs by MTT assay. It is filed as functional, cell-based.
Test [8] is described as follows: Cell cycle arrest in human T24 cells assessed as accumulation at sub-G1 phase at 50 to 100 uM after 24 hrs by flow cytometry assay. Type of test: functional, cell-based. To be noted: T-24. In general terms: A flow cytometer gives signals particle by particle.
Test [9] relates to T-24. In words: Induction of apoptosis in human T24 cells at 50 uM after 24 hrs using annexin V/propidium iodide staining by flow cytometry assay. It is filed as functional.

Calls of active or inactive are those of the source. No cut-off for these calls is given here.

As for `Cc1cc(=O)oc2c(O)c(O)cc(C(=O)O)c12`, the Activity in test [1] is 21.37%; in [2], 62.26%; in test [3], 63.95%; in test [4] it was 65.64%; in test [5], 24.14%; in test [6], 44.52%. Also, the Activity in test [9] was determined as 22.57%. Further, in [7], the outcome was inactive. Besides, the outcome in [8] was Active.
